Here are results for 53 compounds from ChEMBL document CHEMBL1949494, “SAR of α7 nicotinic receptor agonists derived from tilorone: exploration of a novel nicotinic pharmacophore” (Bioorg Med Chem Lett, 2012).

For series [1], the target named is Neuronal acetylcholine receptor subunit alpha-7 (Rattus norvegicus, UniProt Q05941). Kind of series: Displacement of [3H]methyllylcaconitine from alpha7 nAChR in rat brain. Type of series: tissue-based. In general terms: In a radioligand displacement assay an active substance lowers the binding of a labelled ligand.
Series [2] addresses T1, Neuronal acetylcholine receptor subunit alpha-7 (Homo sapiens, UniProt P36544). Kind of series: Agonist activity at human recombinant alpha7 nAChR expressed in xenopus oocytes by patch clamp assay relative to acetylcholine. The class given is functional, cell-based. Conditions: Oocyte. On the technique in general: In patch-clamp work, channel activity is measured electrically.

Series [3] addresses T2, Neuronal acetylcholine receptor; alpha4/beta2 (Homo sapiens, UniProt P17787+P43681). Briefly: Agonist activity at alpha4beta2 nAChR receptor by FLIPR assay. The class given is functional.
Series [4] has as its target Neuronal acetylcholine receptor; alpha4/beta4 (Homo sapiens, UniProt P30926+P43681). Briefly: Agonist activity at alpha4beta4 nAChR receptor by FLIPR assay. Type of series: functional.
Series [5] concerns the target T1, Neuronal acetylcholine receptor subunit alpha-7. Kind of series: Agonist activity at human recombinant alpha7 nAChR expressed in xenopus oocytes by patch clamp assay. The class given is functional, cell-based, Oocyte.
In series [6] the target is Neuronal acetylcholine receptor; alpha3/beta2 (Homo sapiens, UniProt P17787+P32297). Briefly: Agonist activity at alpha3beta2 nAChR receptor by FLIPR assay. Type of series: functional.
Series [7] deals with Muscarinic acetylcholine receptor. Briefly: Binding affinity to muscarinic receptor in rat brain. The class given is tissue-based.
The target in series [8] is T3, Neuronal acetylcholine receptor; alpha3/beta4 (Homo sapiens, UniProt P30926+P32297). Briefly: Agonist activity at alpha3beta4 nAChR receptor by FLIPR assay. The class given is functional.
In series [9] the target is Neuronal acetylcholine receptor subunit alpha-7 (Rattus norvegicus) (UniProt Q05941). Kind of series: Ratio of tilorone Ki to compound Ki for alpha7 nAChR in rat brain. Type of series: tissue-based.
Series [10] deals with T3, Neuronal acetylcholine receptor; alpha3/beta4. Kind of series: Agonist activity at human recombinant alpha3beta4 nAChR in HEK293 cells by FLIPR assay. The class given is functional, cell-based.
Series [11] can be described thus: Plasma concentration in rat at 3 umol/kg, ip at 30 mins. Type of series: ADME, organism-based.
The nature of series [12]: Ratio of drug level in brain to plasma in rat at 3 umol/kg, ip at 30 mins. Type of series: ADME, organism-based. The conditions noted are these: read-out: BPR.
Series [13] deals with T2, Neuronal acetylcholine receptor; alpha4/beta2. Kind of series: Agonist activity at human recombinant alpha4beta2 nAChR in HEK293 cells by FLIPR assay. Type of series: functional, cell-based.
A short description of series [14]: Binding affinity to 5HT3.
Series [15] concerns the target Voltage-gated inwardly rectifying potassium channel KCNH2 (Homo sapiens, UniProt Q12809). Kind of series: Displacement of [3H]dofetilide from human ERG expressed in HEK293 cells.

Sequence of Neuronal acetylcholine receptor subunit alpha-7 (Rattus norvegicus, UniProt Q05941) (Q05941 whole entry): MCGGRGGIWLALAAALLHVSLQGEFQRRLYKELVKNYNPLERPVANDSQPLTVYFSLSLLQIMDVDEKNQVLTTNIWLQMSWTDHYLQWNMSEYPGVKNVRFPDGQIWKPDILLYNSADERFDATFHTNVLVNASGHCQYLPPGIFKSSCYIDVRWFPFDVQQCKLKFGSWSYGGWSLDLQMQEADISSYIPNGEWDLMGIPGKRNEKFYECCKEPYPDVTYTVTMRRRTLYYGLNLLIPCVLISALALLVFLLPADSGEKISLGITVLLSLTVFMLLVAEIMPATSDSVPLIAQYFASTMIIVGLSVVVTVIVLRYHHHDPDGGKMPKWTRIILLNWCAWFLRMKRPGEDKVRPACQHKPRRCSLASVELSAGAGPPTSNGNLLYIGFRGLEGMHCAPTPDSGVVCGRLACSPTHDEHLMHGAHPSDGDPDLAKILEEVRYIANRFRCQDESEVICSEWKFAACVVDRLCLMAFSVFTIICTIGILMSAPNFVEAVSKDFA
T1 sequence (P36544 whole entry): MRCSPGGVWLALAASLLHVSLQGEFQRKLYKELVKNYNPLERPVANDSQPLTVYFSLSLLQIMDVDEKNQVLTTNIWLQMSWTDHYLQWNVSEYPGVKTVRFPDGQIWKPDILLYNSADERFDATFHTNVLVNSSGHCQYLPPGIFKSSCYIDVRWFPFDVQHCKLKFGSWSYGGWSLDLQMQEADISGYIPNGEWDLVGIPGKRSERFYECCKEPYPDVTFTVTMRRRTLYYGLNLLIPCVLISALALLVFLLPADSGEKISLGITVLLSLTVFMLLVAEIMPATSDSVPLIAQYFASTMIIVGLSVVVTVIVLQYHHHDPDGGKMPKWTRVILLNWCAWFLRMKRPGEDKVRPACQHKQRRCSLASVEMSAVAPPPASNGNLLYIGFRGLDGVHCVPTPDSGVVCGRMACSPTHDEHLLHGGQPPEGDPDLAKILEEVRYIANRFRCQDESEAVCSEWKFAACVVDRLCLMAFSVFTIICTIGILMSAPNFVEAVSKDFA
T3 sequence (P30926 whole entry): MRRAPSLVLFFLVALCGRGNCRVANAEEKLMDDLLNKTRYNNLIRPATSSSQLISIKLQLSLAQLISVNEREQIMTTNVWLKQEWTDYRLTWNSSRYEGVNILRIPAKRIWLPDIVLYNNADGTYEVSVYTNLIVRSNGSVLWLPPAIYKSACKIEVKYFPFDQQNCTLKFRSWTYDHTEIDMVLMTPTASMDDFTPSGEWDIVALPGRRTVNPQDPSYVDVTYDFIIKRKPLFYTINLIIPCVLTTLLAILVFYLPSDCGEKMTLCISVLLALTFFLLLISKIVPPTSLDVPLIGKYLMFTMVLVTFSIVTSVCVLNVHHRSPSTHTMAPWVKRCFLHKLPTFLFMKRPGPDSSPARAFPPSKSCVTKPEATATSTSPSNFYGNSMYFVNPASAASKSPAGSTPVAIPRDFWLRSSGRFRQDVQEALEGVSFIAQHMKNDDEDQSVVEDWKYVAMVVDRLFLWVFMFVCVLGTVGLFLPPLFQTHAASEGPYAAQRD
T3 sequence (P32297 whole entry): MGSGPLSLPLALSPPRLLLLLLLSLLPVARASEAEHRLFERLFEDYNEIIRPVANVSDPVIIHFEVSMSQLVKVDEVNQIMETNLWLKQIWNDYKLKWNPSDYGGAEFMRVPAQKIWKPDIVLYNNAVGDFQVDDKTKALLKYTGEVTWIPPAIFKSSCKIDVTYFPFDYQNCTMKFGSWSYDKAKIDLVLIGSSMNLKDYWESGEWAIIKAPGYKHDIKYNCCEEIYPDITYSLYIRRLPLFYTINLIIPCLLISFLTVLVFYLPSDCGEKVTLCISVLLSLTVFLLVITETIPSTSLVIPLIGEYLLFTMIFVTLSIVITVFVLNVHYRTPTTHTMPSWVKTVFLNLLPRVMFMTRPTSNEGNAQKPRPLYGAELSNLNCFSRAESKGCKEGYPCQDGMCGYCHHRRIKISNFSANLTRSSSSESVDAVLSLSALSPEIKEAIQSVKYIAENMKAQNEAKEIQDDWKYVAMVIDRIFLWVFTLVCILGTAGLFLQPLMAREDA
T2 sequence (P17787 whole entry): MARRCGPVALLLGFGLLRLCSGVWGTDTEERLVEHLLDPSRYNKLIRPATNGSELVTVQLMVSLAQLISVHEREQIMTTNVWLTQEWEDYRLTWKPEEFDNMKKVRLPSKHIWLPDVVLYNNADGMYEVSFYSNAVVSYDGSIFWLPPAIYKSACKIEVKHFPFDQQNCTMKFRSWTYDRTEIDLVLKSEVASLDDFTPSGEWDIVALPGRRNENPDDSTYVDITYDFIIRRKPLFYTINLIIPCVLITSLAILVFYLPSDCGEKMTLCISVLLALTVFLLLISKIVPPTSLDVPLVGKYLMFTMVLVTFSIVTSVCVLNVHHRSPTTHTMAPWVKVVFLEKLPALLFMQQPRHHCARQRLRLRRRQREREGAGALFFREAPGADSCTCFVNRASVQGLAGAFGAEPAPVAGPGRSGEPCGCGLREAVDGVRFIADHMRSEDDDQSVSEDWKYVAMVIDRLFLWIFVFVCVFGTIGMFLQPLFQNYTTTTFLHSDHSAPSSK
T2 sequence (P43681 whole entry): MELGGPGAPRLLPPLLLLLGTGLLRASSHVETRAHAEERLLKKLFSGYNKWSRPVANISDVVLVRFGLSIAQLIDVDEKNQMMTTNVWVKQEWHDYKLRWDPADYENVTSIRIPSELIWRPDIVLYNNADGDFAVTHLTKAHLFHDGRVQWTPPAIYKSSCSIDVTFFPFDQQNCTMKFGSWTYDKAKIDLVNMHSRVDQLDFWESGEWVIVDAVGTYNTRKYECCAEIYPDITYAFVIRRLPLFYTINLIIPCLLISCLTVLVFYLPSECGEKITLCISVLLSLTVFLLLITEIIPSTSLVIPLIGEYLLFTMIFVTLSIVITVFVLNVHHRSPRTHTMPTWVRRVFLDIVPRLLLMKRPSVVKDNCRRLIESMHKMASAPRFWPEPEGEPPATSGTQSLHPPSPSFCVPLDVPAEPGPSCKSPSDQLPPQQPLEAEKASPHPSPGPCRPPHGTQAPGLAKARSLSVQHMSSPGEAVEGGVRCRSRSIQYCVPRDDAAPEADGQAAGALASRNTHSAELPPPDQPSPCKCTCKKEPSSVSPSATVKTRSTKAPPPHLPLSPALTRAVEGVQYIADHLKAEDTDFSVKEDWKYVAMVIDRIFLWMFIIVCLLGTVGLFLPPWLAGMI
Sequence of Neuronal acetylcholine receptor subunit alpha-7 (Rattus norvegicus) (Q05941 whole entry): as the sequence (Q05941 whole entry) above
Sequence of Voltage-gated inwardly rectifying potassium channel KCNH2 (Q12809 whole entry): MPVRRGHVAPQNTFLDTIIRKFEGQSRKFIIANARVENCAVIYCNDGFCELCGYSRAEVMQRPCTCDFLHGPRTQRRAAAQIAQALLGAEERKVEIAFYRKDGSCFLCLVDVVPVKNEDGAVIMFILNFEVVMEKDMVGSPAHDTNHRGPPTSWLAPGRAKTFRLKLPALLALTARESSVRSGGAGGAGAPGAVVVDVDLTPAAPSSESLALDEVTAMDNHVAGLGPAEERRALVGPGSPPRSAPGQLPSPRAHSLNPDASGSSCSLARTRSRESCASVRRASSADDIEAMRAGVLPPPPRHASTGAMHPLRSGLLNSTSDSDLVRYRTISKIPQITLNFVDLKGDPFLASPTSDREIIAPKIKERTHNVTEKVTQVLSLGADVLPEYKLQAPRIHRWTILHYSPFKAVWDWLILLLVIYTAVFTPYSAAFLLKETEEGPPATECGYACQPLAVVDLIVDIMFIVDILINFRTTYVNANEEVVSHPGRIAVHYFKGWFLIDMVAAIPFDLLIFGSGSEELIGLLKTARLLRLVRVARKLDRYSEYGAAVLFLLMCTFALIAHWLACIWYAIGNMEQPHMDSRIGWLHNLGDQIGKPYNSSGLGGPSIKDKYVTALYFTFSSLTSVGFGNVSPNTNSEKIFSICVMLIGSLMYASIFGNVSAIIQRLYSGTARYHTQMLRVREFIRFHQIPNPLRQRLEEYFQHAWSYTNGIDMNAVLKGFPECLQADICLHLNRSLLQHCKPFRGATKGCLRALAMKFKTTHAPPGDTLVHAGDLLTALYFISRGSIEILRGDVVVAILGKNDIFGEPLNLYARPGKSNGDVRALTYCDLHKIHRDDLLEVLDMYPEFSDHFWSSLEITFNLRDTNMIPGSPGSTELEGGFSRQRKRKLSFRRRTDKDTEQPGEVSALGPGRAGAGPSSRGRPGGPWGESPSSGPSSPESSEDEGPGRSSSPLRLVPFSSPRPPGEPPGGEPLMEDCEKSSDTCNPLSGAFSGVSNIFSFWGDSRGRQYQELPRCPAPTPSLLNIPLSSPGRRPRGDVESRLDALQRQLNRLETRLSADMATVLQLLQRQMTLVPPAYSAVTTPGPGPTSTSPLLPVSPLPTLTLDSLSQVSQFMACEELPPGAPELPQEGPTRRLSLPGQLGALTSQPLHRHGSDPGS
Sequence of Neuronal acetylcholine receptor; alpha4/beta4 (P30926 whole entry): as the sequence (P30926 whole entry) above
Sequence of Neuronal acetylcholine receptor; alpha4/beta4 (P43681 whole entry): as the sequence (P43681 whole entry) above
Sequence of Neuronal acetylcholine receptor; alpha3/beta2 (P17787 whole entry): as the sequence (P17787 whole entry) above
Sequence of Neuronal acetylcholine receptor; alpha3/beta2 (P32297 whole entry): as the sequence (P32297 whole entry) above

On to `CN1CC[C@@H](Oc2ccc3c(c2)C(=O)c2cc(O[C@@H]4CCN(C)C4)ccc2-3)C1`, for which, in series [1], the Ki worked out at 0.012 µM.
For the compound `CCN(CC)CCCc1ccc2c(c1)C(=O)c1cc(CCCN(CC)CC)ccc1-2`, the inhibitory constant (Ki) in series [1] amounted to 2.9 µM.
`CN(C)CCOc1ccc2c(c1)C(=O)c1cc(OCCN(C)C)ccc1-2`: the affinity in series [1], expressed as Ki, was 0.05 µM.
In [1], `CCN(CC)CCOc1ccc2c(c1)C(O)c1cc(OCCN(CC)CC)ccc1-2` registered a Ki of 0.27 µM. This Ki lies about 5.4-fold higher than the previous one.
On the same count and under the same terms, then `CN1CCC(Oc2ccc3c(c2)C(=O)c2cc(OC4CCN(C)CC4)ccc2-3)CC1`, with 0.037 µM; and `CCN(CC)CC#Cc1ccc2c(c1)C(=O)c1cc(C#CCN(CC)CC)ccc1-2`, with 0.087 µM; and `CN1[C@@H]2CC[C@H]1C[C@H](Oc1ccc3c(c1)C(=O)c1cc(O[C@@H]4C[C@H]5CC[C@@H](C4)N5C)ccc1-3)C2`, with 0.09 µM.
For the compound `O=C1c2ccccc2-c2ccc(N3CCN4CCC3CC4)cc21`, the Ki in series [1] stood at 0.00028 µM.
In turn, `NCCOc1ccc2c(c1)C(=O)c1cc(OCCN)ccc1-2` returned a Ki in [1] of 15 µM. Against the preceding compound, the Ki is about 54000-fold higher.
`CCN(CC)CCOc1ccc(-c2ccc(OCCN(CC)CC)cc2)cc1`: the Ki in series [1] is above 1000 µM.
Compound `CCN(CC)CCOc1ccc2oc3ccc(OCCN(CC)CC)cc3c(=O)c2c1` had a Ki in series [1] of 0.44 µM.
On to `CCN(CC)CCOc1ccc2c(c1)C(=O)c1cc(OCCN(CC)CC)ccc1-2` [TILORONE], for which, in series [2], the Emax worked out at 67%. The EC50 in [3] was above 10 µM; in series [4], above 10 µM; in series [5], 2.5 µM; in series [6], above 10 µM; in series [8], above 10 µM. Further, the Ki in series [1] amounted to 0.056 µM; in series [7], 0.42 µM.
`CC[N+](C)(CC)CCOc1ccc2c(c1)C(=O)c1cc(OCC[N+](C)(CC)CC)ccc1-2` came in with a Ki in series [1] of 0.015 µM.
In [1], `O=S1(=O)c2ccccc2-c2ccc(O[C@@H]3CN4CCC3CC4)cc21` had a Ki of 0.028 µM. This Ki is about 1.9-fold higher than that of the compound before.
As to `CN1CCN(c2ccc3c(c2)C(=O)c2cc(N4CCN(C)CC4)ccc2-3)CC1`, in series [1], the Ki amounted to 0.14 µM.
Regarding `CN1C[C@H]2CN(c3ccc4c(c3)C(=O)c3ccccc3-4)C[C@H]21`, the affinity in series [1] corresponds to a Ki of 0.0059 µM. The Ratio Ki in [9] stood at 10.
`O=C1c2cc(O[C@H]3CN4CCC3CC4)ccc2-c2ccc(O[C@H]3CN4CCC3CC4)cc21` displayed a Ki in series [1] of 0.00058 µM.
The same measure, in the same setting: then `O=C1c2ccccc2-c2ccc(O[C@@H]3CN4CCC3CC4)cc21`, with 0.012 µM; and `O=C1c2cc(O[C@@H]3CCNC3)ccc2-c2ccc(O[C@@H]3CCNC3)cc21`, with 0.071 µM; and `CCN(CC)CCOc1ccc2ccc(OCCN(CC)CC)cc2c1`, with above 1000 µM.
On to `O=C1c2cc(OCCN3CCCCC3)ccc2-c2ccc(OCCN3CCCCC3)cc21`, for which the inhibition constant (Ki) in [1] was 4.2 µM.
Still for that read-out and setting: with `O=C1c2cc(N3CC4CNCC4C3)ccc2-c2ccc(N3CC4CNCC4C3)cc21` (configuration not stated) the figure was 0.00031 µM.
The compound `CCNCCOc1ccc2c(c1)C(=O)c1cc(OCCNCC)ccc1-2` had an inhibition constant Ki in [1] of 0.95 µM.
In series [1], `O=C1c2ccccc2-c2ccc(O[C@H]3CN4CCC3CC4)cc21` showed a Ki of 0.0032 µM.
On the same count and under the same terms, with `O=S1(=O)c2ccccc2-c2ccc(O[C@H]3CN4CCC3CC4)cc21` the figure was 0.0039 µM.
Regarding `CN1CC2CN(c3ccc4oc5ccccc5c(=O)c4c3)CC2C1` (configuration not stated), the Emax in series [2] stood at 61%. The results for the Ki in series [1] and in [14] were 0.004 µM and 0.1 µM, respectively. Moreover, the values for the EC50 in [10], in series [5] and in series [13] were above 100 µM, 2.2 µM and above 100 µM, respectively. The concentration at 0.5 h in [11] was 12.4 ng/mL. In addition, in series [12], the Kp at 0.5 h was 48.
For `CN1CCC[C@@H]1COc1ccc2c(c1)C(=O)c1cc(OC[C@H]3CCCN3C)ccc1-2`, the affinity in series [1] corresponds to a Ki of 0.0076 µM.
`O=S1(=O)c2ccccc2-c2ccc(N3CCN4CCC3CC4)cc21`: the Emax in series [2] is below 5%. Besides, the Ki in series [1] is 2.3e-05 µM; in [15] it was 0.47 µM; in series [14], 0.66 µM. Besides, the EC50 in series [10], in series [5] and in series [13] was above 100 µM throughout. Moreover, in [11], the concentration at 0.5 h was determined as 8.4 ng/mL. In series [12], the Kp at 0.5 h is 12.
`CCN(CC)CCCOc1ccc2c(c1)C(=O)c1cc(OCCCN(CC)CC)ccc1-2`: affinity in series [1] was put at a Ki of 0.83 µM.
Same read-out and setting: with `O=C1c2cc(OCCN3CCCC3)ccc2-c2ccc(OCCN3CCCC3)cc21` the figure was 0.053 µM; with `CCN(CC)CCOc1ccc2c(c1)S(=O)(=O)c1cc(OCCN(CC)CC)ccc1-2`, 0.23 µM; with `CCN(CC)CCOc1cccc(C(=O)c2cccc(OCCN(CC)CC)c2)c1`, 68 µM.
Turning to `O=c1c2ccccc2oc2ccc(O[C@@H]3CN4CCC3CC4)cc12`, the inhibitory constant (Ki) in series [1] was found to be 0.0088 µM.
For `CN1CC2CN(c3ccc4c(c3)C(=O)c3ccccc3-4)CC2C1` (configuration not stated), the Ki in series [1] was 0.063 µM.
The compound `O=c1c2ccccc2oc2ccc(O[C@H]3CN4CCC3CC4)cc12` displayed a Ki in series [1] of 0.0087 µM.
The same measure, in the same setting: with `O=C1c2cc(O[C@@H]3CN4CCC3CC4)ccc2-c2ccc(O[C@@H]3CN4CCC3CC4)cc21` the figure was 0.0016 µM.
Same read-out and setting: then `CN1CC[C@@H]1COc1ccc2c(c1)C(=O)c1cc(OC[C@H]3CCN3C)ccc1-2`, with 0.0043 µM; and `c1ccc2c(c1)Cc1cc(O[C@H]3CN4CCC3CC4)ccc1-2`, with 0.11 µM.
`CN1CCCN(c2ccc3c(c2)C(=O)c2cc(N4CCCN(C)CC4)ccc2-3)CC1` had a Ki in series [1] of 0.0065 µM. Also, in series [9], the Ratio Ki was 10.
As for `CN1CC2CN(c3ccc4c(c3)C(=O)c3cc(N)ccc3-4)CC2C1` (configuration not stated), in [1], the Ki came out at 0.00065 µM. In other words, the sub-nanomolar range.
The compound `c1ccc2c(c1)Cc1cc(O[C@@H]3CN4CCC3CC4)ccc1-2` had a Ki in series [1] of 0.34 µM.
As for `CN1C[C@H]2CN(c3ccc4c(c3)S(=O)(=O)c3ccccc3-4)C[C@H]21`, the Ki in series [1] was 0.023 µM.
In series [1], `CN1CC2CN(c3ccc4c(c3)C(=O)c3cc(N5CC6CN(C)CC6C5)ccc3-4)CC2C1` (configuration not stated) returned a Ki of 0.0012 µM.
The compound `CN1CCC[C@H]1COc1ccc2c(c1)C(=O)c1cc(OC[C@@H]3CCCN3C)ccc1-2` had a Ki in [1] of 0.012 µM.
In series [1], `CCN(CC)CCOc1ccc2c(c1)C(=O)c1cc(OCCOC)ccc1-2` returned a Ki of 2 µM. Compared with the last compound, the Ki is about 170-fold higher.
`O=C1c2cc(N3C[C@@H]4CN[C@@H]4C3)ccc2-c2ccc(N3C[C@@H]4CN[C@@H]4C3)cc21`: affinity in [1] was put at a Ki of 0.018 µM.
On the same count and under the same terms, with `CCN(CC)CCOc1ccc2c3ccc(OCCN(CC)CC)cc3[s+]([O-])c2c1` the figure was 0.69 µM.
With `CCN(CC)CCOc1ccc2c(c1)sc1cc(OCCN(CC)CC)ccc12`, the affinity in series [1] corresponds to a Ki of 1.6 µM. This Ki lies about 2.3-fold higher than the previous one.
In turn, `CCN(CC)CCOc1ccc2c(c1)Cc1cc(OCCN(CC)CC)ccc1-2` displayed a Ki in series [1] of 0.77 µM.
`CCN(CC)CCOc1ccc2c(c1)C(=O)c1ccccc1-2`: the Ki in [1] was 1.8 µM.
In turn, `CN1C[C@H]2CN(c3ccc4c(c3)C(=O)c3cc(N5C[C@@H]6CN(C)[C@@H]6C5)ccc3-4)C[C@H]21` came in with a Ki in [1] of 9.2e-05 µM.
Compound `CCN(CC)CCCCOc1ccc2c(c1)C(=O)c1cc(OCCCCN(CC)CC)ccc1-2` registered a Ki in [1] of 2.3 µM.
With `CC(C)N(CCOc1ccc2c(c1)C(=O)c1cc(OCCN(C(C)C)C(C)C)ccc1-2)C(C)C`, in series [1], the affinity, expressed as Ki, was 1.3 µM.

For orientation: Ki means the dissociation constant of the complex between target and ligand, obtained from inhibition or displacement. Lower therefore signals a stronger hold on the target. As a reminder, the Emax is the greatest response seen or fitted, relative to the assay's reference. Usually EC50 stands for the midpoint of the concentration-response curve.
